Measured values taken from patent publication US6664269B2, “Isoquinolinone derivatives” (Maybridge plc, priority 2001, dated 2003).

Legend:
HeLa cells = test: Dose Enhancing Factor: potentiation of bleomycin cell growth inhibition (SRB assay); type: cell-based; conditions: test compound 25 μM, bleomycin 0.5 μg/ml
Method: The Dose Enhancing Factor (DEF) is a ratio of the enhancement of cell growth inhibition elicited by the test compound in the presence of bleomycin compared to bleomycin alone. The test compounds were used at a fixed concentration of 25 μM. Bleomycin was used at a concentration of 0.5 μg/ml. The DEF was calculated from the formula: [formula]
GrowthTC is cell growth in presence of the test compound;
GrowthControl is cell growth of control cells;
Growthbleo is cell growth in presence of bleomycin; and
Growth(bleo+TC) is cell growth in presence of bleomycin and the test compound.
Cell growth was assessed using the sulforhodamine B (SRB) assay (Skehan, P., et al., 1990, J. Natl. Cancer Inst., 82, 1107-1112). 2,000 HeLa cells were seeded into each well of a flat-bottomed 96-well microtiter plate in a volume of 100 μl and incubated for 6 hours at 37° C. Cells were either replaced with media alone or with media containing the test compound at a final concentration of 25 μM. Cells were allowed to grow for a further 1 hour before the addition of bleomycin to either untreated cells or test compound treated cells. Cells untreated with either bleomycin or test compound were used as a control. Cells treated with test compound alone were used to assess the growth inhibition by the test compound.
Cells were left for a further 16 hours before replacing the media and allowing the cells to grow for a further 72 hours at 37° C. The media was then removed and the cells fixed with 100 μl of ice cold 10% (w/v) trichloroacetic acid. The plates were incubated at 4° C. for 20 minutes and then washed four times with water. Each well of cells was then stained with 100 μl of 0.4% (w/v) SRB in 1% acetic acid for 20 minutes before washing four times with 1% acetic acid. Plates were then dried for 2 hours at room temperature. The dye from the stained cells was solubilized by the addition of 100 μl of 10 mM Tris Base into each well. Plates were gently shaken and left at room temperature for 30 minutes before measuring the optical density at 564 nm on a Microquant microtiter plate reader.

With `COc1ccc(Cc2cc3ccccc3c(=O)[nH]2)cc1` [Compound 1, 3-(4-methoxybenzyl)-1-isoquinolinone] the “DEF (Dose Enhancing Factor)” value (HeLa cells) was 1.15 and the melting point was 216 to 218 °C.

For `O=c1[nH]c(CCc2ccccc2)cc2ccccc12` [Compound 2, 3-(2-Phenylethyl)-1-isoquinolinone], the “DEF (Dose Enhancing Factor)” value (HeLa cells) was 1.4 and the melting point was 198 to 200 °C.

Compound `CCC(c1ccccc1)c1cc2ccccc2c(=O)[nH]1` (stereo not drawn) [Compound 3, 3-(1-Phenylpropyl)-1-isoquinolinone] has a melting point of 179 to 180 °C.

For `COc1cccc(Cc2cc3ccccc3c(=O)[nH]2)c1` [Compound 4, 3-(3-Methoxybenzyl)-1-isoquinolinone], the “DEF (Dose Enhancing Factor)” value (HeLa cells) was 1.2 and the melting point was 208 to 210 °C.

In the case of `O=c1[nH]c(Cc2ccccc2)cc2ccccc12` [Compound 5, 3-Benzyl-1-isoquinolinone], the “DEF (Dose Enhancing Factor)” value (HeLa cells) is reported as 1.1 and the melting point is reported as 193 to 195 °C.

In the case of `O=c1[nH]c(Cc2ccc(F)cc2)cc2ccccc12` [Compound 6, 3-(4-Fluorobenzyl)-1-isoquinolinone], the melting point is reported as 238 to 240 °C.

In the case of `O=c1[nH]c(Cc2cccc(O)c2)cc2ccccc12` [Compound 7, 3-(3-hydroxybenzyl)isoquinolinone], the “DEF (Dose Enhancing Factor)” value (HeLa cells) is reported as 1.2 and the melting point is reported as 225 to 227 °C.

In the case of `O=c1[nH]cc(Cc2ccccc2)c2ccccc12` [Compound 8, 4-benzyl-1-isoquinolinone], the melting point is reported as 217 to 220 °C.

Work on `O=c1[nH]cc(Cc2ccc(F)cc2)c2ccccc12` [Compound 9, 4-(4-Fluorobenzyl)-1-isoquinolinone] yielded a melting point of 185 to 188 °C.

Work on `O=c1[nH]cc(Cc2ccc(F)c(F)c2)c2ccccc12` [Compound 10, 4-(3,4-Difluorobenzyl)-1-isoquinolinone] yielded a melting point of 148 to 150 °C.

With `O=c1[nH]cc(Cc2cccc(F)c2)c2ccccc12` [Compound 11, 4-(3-Fluorobenzyl)-1-isoquinolinone] the melting point was 132 to 134 °C.

Compound `N#Cc1cccc(Cc2c[nH]c(=O)c3ccccc23)c1` [Compound 12, 4-(3-Cyanobenzyl)-1-isoquinolinone] has a melting point of 85 to 88 °C.

`O=c1[nH]cc(Cc2ccc(Br)cc2)c2ccccc12` [Compound 13, 4-(4-Bromobenzyl)-1-isoquinolinone] gave a melting point of 180 to 182 °C.
